Results: PMC7549094 (Journal of Medicinal Chemistry, 2020)
Like-named read-outs stand apart in the source and are kept apart here.

Legend:
[1] = pharmacokinetics in cynomolgus monkey; format: in vivo; details: male cynomolgus monkey
Method: In Vivo Intravenous PK Study in Non-human Primates. The IV PK study in non-human primates was carried out at Covance research facility in Greenfield, Indiana. The research facility is accredited by AAALAC (Association for Assessment and Accreditation of Laboratory Animal Care). The male Cynomolgus monkeys were approximately 4.5 years of age and weighed 4.2 to 5.0 kg. 1 was administered […]
75% polyethylene glycol (PEG300) as described in the earlier section. Doses were administered once by intravenous injection via the saphenous vein at a dose of 0.3 mg/kg with a dosing volume of 0.1 ml/kg.
Clinical observations and food consumption determinations were performed on all animals. Blood samples for PK analysis were collected from all animals via the femoral vein approximately 0.083, 0.25, […]
In Vivo Oral PK Study in Non-human Primates. The PO PK study in non-human primates was conducted at a Novartis facility using Non-naïve male Cynomolgus monkeys weighing 3.8 to 4.0 kg. The monkeys were fasted overnight and fed 2 hours post-dose. 1 was formulated in a suspension of 0.5% […]
gavaged with 5 mL/kg of the suspension for a total dose of 10 mg/kg. The gavage tubing was flushed with 5 mL of water to ensure the gavage tubing was cleared of the formulation. Blood samples for PK analysis were collected from all animals via the saphenous veins approximately 0.25, 0.5, 1, 2, 4, 7, 24, 48, and 72 hours post-dose.

[2] = pharmacokinetics, summary across preclinical species; format: in vivo, rat, dog, cynomolgus monkey
[3] = target: T1, hr 5-HT1A antag (Homo sapiens, UniProt P08908); assay: receptor profile (Table S4); format: biochemical
T1 sequence (P08908 1-422): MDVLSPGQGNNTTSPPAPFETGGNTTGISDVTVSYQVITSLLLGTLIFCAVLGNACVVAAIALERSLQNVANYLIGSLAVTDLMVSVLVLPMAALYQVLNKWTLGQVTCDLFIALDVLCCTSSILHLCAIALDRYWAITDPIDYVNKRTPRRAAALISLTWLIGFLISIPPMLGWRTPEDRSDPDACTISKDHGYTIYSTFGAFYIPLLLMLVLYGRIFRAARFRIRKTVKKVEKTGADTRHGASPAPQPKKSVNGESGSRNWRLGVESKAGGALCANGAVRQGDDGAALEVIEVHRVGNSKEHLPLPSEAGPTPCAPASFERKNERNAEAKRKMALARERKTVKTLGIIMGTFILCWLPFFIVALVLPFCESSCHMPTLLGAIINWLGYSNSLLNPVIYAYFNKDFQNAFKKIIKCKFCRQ

[4] = target: hr ERa antag (Homo sapiens, UniProt P03372); assay: receptor profile (Table S4); format: biochemical
[5] = target: T2, hr GR antag (Homo sapiens, UniProt P04150); assay: receptor profile (Table S4); format: biochemical
T2 sequence (P04150 1-777): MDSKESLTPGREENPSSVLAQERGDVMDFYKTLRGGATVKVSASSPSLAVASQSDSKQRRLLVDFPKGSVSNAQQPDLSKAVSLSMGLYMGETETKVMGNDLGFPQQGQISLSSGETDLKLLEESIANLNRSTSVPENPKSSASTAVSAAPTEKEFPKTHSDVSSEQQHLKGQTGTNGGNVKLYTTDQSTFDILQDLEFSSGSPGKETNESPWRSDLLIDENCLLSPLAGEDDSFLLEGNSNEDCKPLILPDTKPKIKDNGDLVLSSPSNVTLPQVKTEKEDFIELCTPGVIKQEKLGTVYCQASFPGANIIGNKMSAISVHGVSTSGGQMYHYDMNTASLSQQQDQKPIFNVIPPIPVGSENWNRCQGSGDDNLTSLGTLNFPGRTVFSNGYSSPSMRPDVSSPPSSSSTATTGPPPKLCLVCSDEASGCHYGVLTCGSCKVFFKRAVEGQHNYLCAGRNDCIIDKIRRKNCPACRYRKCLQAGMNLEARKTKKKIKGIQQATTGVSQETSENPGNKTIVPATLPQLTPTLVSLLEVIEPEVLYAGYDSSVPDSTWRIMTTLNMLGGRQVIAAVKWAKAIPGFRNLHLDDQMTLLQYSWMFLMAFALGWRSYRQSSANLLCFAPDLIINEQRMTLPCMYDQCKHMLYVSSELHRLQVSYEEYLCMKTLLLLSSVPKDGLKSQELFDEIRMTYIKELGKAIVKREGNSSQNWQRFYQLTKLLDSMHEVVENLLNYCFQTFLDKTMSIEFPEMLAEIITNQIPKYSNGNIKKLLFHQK

[6] = target: hr MC3 (Homo sapiens, UniProt P41968); assay: receptor profile (Table S4); format: binding
[7] = target: hr EGFR (Homo sapiens, UniProt P00533); assay: receptor profile (Table S4); format: biochemical
[8] = target: hr KDR (Homo sapiens, UniProt P35968); assay: receptor profile (Table S4); format: biochemical
[9] = Balb/C mice, 20 mg/kg PO; dose-normalized
Method: In Vivo PK Studies in Mice.
The solution was filtered using a 0.45 m syringe filter before dosing. Two male Balb/c mice were administered 1 intravenously via the lateral tail
vein at 5 mg/kg with a dose volume of 2.0 mL/kg. 1 was also formulated in a suspension of 0.5%
methylcellulose with 0.5% Tween 80 (0.5% MC/0.5% Tw80) in water at 2.5 mg/mL. A group of mice
(n=3) were administered 1 orally via gavage at 20 mg/kg with a dose volume of 8.0 mL/kg.
The mouse blood samples were centrifuged to separate plasma and the plasma samples were frozen at -
In Vivo PK Studies in Rats.
Two male Wistar rats were administered
1 intravenously via the lateral tail vein at 3 mg/kg with a dose volume of 1.0 mL/kg. 1 was also formulated
in a suspension of 0.5% methylcellulose with 0.5% Tween 80 (0.5% MC/0.5% Tw80) in water at 2.0
mg/mL. The second group of rats (n=3) were administered 1 orally via gavage at 10 mg/kg in suspension
with a dose volume of 5.0 mL/kg. Six blood samples of 100 μL each were collected serially from each
animal via the saphenous vein up to 24 hours after dosing. The rat blood samples were centrifuged to
separate plasma and the plasma samples were frozen at -20°C until analysis.
In Vivo PK Studies in Dogs.
The solution was filtered using a 0.45 m syringe filter before dosing. Three male Beagle dogs were administered 1 intravenously via saphenous
vein at 0.3 mg/kg with a dose volume of 0.1 mL/kg. 1 was also formulated in a suspension of 0.5%
methylcellulose with 0.5% Tween 80 (0.5%MC/0.5% Tween 80) in water at 1.0 mg/mL. The second
group of male dogs (n=2) were administered 1- orally via gavage at 1.0 mg/kg with a dose volume of 1.0
mL/kg. Seven blood samples of 250 µL each were collected serially from each animal via the jugular vein
The dog blood samples were centrifuged to separate plasma and the plasma
samples were frozen at -20 °C until analysis.

[10] = system: h Nic(cns)
[11] = system: h PDE3
[12] = target: PXR (Homo sapiens, UniProt O75469); assay: receptor profile (Table S4); details: human
[13] = target: hr PXR antag (Homo sapiens, UniProt O75469); assay: receptor profile (Table S4); details: hr PXR antag
[14] = target: hERG (Homo sapiens, UniProt Q12809); assay: hERG manual patch clamp assay; details: read-out: hERG channel IC50
Sequence of hERG (Q12809 whole entry): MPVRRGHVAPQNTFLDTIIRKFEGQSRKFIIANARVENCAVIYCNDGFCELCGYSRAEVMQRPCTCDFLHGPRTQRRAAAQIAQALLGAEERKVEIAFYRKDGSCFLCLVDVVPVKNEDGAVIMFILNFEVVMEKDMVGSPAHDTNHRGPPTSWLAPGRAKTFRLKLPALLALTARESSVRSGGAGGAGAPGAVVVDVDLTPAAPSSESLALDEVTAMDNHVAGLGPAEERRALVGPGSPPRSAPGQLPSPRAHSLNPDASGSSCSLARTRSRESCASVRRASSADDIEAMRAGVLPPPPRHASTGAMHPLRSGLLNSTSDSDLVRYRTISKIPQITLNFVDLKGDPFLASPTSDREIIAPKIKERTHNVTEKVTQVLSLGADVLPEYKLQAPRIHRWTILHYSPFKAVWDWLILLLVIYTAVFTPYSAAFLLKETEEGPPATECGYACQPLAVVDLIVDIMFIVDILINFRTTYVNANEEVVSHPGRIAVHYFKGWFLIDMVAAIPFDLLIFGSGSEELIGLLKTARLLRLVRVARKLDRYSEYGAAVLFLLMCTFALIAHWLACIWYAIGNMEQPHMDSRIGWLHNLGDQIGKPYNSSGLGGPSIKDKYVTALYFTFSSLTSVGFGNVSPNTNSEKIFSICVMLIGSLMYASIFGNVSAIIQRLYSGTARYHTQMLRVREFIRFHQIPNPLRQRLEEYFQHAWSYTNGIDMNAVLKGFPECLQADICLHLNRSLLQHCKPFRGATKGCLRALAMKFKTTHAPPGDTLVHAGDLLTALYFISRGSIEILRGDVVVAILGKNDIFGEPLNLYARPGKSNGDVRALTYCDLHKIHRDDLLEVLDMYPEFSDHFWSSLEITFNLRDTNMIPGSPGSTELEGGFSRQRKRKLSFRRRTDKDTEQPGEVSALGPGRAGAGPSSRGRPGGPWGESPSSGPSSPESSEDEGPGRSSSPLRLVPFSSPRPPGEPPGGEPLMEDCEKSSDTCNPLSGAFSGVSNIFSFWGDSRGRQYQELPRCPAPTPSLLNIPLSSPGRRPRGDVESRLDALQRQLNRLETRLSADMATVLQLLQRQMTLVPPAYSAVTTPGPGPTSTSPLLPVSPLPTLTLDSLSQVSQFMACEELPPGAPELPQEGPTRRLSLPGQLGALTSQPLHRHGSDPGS

Sequence of hr EGFR (P00533 25-1210): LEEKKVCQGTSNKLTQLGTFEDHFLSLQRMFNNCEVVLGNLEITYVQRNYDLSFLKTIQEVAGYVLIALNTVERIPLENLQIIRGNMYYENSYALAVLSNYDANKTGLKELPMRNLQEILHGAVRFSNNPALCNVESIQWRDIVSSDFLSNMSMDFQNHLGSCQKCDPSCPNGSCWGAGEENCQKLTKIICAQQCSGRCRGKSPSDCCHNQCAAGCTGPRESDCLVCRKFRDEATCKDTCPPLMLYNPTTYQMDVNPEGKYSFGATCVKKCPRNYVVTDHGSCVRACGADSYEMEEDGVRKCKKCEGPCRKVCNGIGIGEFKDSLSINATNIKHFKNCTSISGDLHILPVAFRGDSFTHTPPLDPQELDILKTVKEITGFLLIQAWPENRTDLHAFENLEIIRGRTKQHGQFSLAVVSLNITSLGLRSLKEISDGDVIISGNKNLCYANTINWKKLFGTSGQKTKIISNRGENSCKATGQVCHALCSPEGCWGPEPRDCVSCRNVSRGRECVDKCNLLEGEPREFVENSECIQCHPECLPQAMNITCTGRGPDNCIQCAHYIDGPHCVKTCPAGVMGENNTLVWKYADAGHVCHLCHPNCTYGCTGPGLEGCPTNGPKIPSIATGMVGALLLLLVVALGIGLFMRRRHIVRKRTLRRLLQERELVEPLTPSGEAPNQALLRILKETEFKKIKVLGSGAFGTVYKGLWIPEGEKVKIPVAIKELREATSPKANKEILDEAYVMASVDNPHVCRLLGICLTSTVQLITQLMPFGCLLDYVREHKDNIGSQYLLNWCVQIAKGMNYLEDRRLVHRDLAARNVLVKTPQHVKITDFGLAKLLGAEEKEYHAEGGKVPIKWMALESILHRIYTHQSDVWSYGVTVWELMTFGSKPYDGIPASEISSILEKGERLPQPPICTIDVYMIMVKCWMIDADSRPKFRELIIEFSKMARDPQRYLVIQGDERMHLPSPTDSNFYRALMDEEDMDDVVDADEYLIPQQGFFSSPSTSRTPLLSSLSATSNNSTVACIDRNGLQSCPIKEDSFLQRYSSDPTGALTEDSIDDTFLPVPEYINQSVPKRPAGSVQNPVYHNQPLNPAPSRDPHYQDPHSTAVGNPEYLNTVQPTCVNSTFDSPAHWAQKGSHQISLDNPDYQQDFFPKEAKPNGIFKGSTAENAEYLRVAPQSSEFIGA
Sequence of hr MC3 (P41968 whole entry): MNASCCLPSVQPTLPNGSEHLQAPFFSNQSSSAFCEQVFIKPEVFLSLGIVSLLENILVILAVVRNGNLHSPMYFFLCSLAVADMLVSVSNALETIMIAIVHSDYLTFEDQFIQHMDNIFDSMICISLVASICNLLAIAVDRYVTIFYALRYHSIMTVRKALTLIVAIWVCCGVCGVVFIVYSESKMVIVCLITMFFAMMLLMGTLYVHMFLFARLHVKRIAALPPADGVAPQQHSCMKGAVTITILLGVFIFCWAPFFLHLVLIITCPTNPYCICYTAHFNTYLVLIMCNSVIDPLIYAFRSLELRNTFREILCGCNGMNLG
Sequence of hr KDR (P35968 20-1356): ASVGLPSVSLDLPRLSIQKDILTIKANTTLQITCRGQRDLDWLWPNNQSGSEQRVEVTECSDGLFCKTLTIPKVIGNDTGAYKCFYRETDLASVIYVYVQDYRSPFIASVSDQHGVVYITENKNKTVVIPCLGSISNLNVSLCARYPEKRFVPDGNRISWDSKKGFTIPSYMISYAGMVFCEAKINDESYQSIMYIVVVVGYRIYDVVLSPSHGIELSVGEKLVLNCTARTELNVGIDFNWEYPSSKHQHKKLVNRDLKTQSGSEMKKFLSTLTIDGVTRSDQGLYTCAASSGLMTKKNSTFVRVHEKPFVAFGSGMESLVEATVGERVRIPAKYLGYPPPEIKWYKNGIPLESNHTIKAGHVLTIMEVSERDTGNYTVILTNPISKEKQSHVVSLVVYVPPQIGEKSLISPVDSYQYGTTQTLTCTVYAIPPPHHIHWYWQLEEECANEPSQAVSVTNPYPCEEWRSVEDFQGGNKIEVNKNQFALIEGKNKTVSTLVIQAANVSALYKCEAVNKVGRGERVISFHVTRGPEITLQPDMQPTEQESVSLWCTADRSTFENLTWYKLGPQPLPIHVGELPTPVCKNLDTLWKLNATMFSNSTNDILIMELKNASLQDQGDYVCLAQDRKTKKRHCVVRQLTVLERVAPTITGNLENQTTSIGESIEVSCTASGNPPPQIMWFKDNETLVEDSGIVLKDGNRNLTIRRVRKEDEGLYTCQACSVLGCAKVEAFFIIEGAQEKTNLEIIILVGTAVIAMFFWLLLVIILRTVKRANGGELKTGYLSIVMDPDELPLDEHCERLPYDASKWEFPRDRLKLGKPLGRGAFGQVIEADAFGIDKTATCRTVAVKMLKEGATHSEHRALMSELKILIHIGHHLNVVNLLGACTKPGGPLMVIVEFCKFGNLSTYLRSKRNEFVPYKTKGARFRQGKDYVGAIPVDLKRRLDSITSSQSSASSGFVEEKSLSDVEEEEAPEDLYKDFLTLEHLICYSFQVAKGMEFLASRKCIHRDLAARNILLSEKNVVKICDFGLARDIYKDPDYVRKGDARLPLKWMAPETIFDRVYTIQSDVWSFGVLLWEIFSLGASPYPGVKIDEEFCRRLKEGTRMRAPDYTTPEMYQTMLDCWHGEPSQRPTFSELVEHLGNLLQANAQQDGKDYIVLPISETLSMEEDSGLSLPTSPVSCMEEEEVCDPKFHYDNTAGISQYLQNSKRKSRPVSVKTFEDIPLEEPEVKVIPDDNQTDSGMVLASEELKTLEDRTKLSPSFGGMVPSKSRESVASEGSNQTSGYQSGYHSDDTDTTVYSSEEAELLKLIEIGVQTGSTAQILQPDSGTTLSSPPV
Sequence of hr ERa antag (P03372 whole entry): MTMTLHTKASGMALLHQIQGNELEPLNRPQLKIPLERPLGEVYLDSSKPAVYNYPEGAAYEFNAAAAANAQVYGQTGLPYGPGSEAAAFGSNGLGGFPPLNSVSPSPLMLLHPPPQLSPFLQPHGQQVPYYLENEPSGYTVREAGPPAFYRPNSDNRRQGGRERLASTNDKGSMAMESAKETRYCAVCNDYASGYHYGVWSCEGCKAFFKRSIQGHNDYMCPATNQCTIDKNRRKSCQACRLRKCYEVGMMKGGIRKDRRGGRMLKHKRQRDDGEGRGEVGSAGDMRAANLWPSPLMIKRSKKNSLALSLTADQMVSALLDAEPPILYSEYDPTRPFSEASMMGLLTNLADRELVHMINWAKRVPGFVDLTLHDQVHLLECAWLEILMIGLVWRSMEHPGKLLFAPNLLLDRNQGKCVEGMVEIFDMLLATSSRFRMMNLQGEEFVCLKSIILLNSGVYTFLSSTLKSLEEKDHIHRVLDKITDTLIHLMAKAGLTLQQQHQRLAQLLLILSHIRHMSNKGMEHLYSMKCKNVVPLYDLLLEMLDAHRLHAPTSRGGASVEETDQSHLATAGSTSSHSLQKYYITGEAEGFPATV
Sequence of hr PXR antag (O75469 whole entry): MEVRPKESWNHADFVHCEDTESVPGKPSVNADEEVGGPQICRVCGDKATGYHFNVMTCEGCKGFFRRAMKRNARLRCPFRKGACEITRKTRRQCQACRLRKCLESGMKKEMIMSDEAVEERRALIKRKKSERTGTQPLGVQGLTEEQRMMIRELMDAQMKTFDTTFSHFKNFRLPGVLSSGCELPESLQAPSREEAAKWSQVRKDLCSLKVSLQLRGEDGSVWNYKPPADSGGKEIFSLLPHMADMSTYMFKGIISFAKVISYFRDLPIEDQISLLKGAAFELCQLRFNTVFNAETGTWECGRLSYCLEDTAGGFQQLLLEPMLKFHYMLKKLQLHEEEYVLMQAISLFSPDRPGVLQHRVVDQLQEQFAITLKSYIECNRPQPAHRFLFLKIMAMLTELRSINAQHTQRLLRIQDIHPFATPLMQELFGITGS
Sequence of PXR (O75469 whole entry): as above

Cc1nc(C)c(C(=O)Nc2ccc(F)c(-c3nc4ncc(-c5ncccc5C)cn4n3)c2)o1 [compound 1, N-(4-Fluoro-3-(6-(3-methylpyridin-2-yl)-[1,2,4]triazolo[1,5-a]pyrimidin-2-yl)phenyl)-2,4-dimethyloxazole-5-carboxamide]
MRT ([1]; in vivo, 0.3 mg/kg IV): 9.7 h | bioavailability ([1]; in vivo, 0.3 mg/kg IV and 10 mg/kg PO): 27% | clearance ([1]; in vivo, 0.3 mg/kg IV, fumarate salt): 0.9 mL/min/kg | half-life ([1]; in vivo, 0.3 mg/kg IV, read-out: T1/2 IV (converted)): 9.7 h | Vd ([1]; in vivo, 0.3 mg/kg IV, read-out: Vss): 0.5 L/kg | DN AUC PO ([1]; 10 mg/kg PO, dose-normalized): 12 µM·h | DN Cmax PO ([1]; 10 mg/kg PO, dose-normalized): 1000 nM | bioavailability ([2]; Balb/c (mouse), Wistar (rat), beagle (dog), rat, dog, cynomolgus monkey, in vivo, po, across the tested species, conventional suspension formulations): 27 to 67% | half-life ([2]; male, Balb/c (mouse), Wistar (rat), beagle (dog), rat, dog, cynomolgus monkey, in vivo, across species following IV administration, read-out: plasma terminal half-life): 3 to 10 h | CL as % of hepatic blood flow ([2]; mouse, rat, and monkey, IV, fumarate salt): 2–17 % of hepatic blood flow | EC50/IC50 ([3]; hr 5-HT1A antag): > 30 µM | inhibition at 10 µM ([3]; read-out: % inh/act @ 10 µM): 19% | inhibition at 30 µM ([3]; read-out: % inh/act @ 30 µM): 42% | EC50/IC50 ([4]; hr ERa antag): > 30 µM | inhibition at 10 µM ([4]; read-out: % inh/act @ 10 µM): -8% | inhibition at 30 µM ([4]; read-out: % inh/act @ 30 µM): -4% | EC50/IC50 ([5]; hr GR antag): > 30 µM | inhibition at 10 µM ([5]; read-out: % inh/act @ 10 µM): 0% | inhibition at 30 µM ([5]; read-out: % inh/act @ 30 µM): 10% | EC50/IC50 ([6]; hr MC3): > 30 µM | inhibition at 10 µM ([6]; read-out: % inh/act @ 10 µM): 10% | inhibition at 30 µM ([6]; read-out: % inh/act @ 30 µM): 24% | EC50/IC50 ([7]; hr EGFR): > 30 µM | inhibition at 10 µM ([7]; read-out: % inh/act @ 10 µM): 16% | inhibition at 30 µM ([7]; read-out: % inh/act @ 30 µM): 17% | EC50/IC50 ([8]; hr KDR): > 30 µM | inhibition at 10 µM ([8]; read-out: % inh/act @ 10 µM): 21% | inhibition at 30 µM ([8]; read-out: % inh/act @ 30 µM): 22% | DN AUC PO [9]: 7.5 µM·h | DN Cmax PO [9]: 800 nM | % inh/act @ 10 µM [10]: 20% | % inh/act @ 30 µM [10]: 24% | % inh/act @ 10 µM [11]: 6% | % inh/act @ 30 µM [11]: 4% | inhibition at 10 µM [12]: 26% | EC50/IC50 [13]: > 30 µM | IC50 [14]: > 30 µM
